Experimental data as given in US9353415B2, “Methods for functional analysis of high-throughput experimental data and gene groups identified therefrom” (Thomson Reuters (Scientific) LLC, priority 2006, dated 2016).

System: CREB pathway
Test: microarray gene expression from the livers of rats exposed to drugs, mapped on pathway maps (signature networks method)
Type: in vivo
Details: rat liver, treated vs untreated, custom cDNA two-channel arrays, five repeats; no threshold for fold change and P-values; FIG. 16C
Experimental: This dataset contains microarray gene expression from the livers of rats exposed to three drugs: phenobarbital, mestranol, and tamoxifen. The data were produced by custom cDNA two-channel arrays. Five biological repeats were performed for each treatment and a set of five samples from the untreated animals were analyzed.
A pre-computed comprehensive set of overlapping canonical pathways derived from 450 signaling and metabolic pathway maps manually created using a general database, MetaCore™ was obtained. These pathways then were used as a framework for mapping experimental datasets as well as to calculate the network modules most relevant to specific pathways (FIG. 15). The maps feature approximately 3,000 proteins and over 2,000 overlapping human pathways. On these maps, typical signaling inputs (indicated by block arrows) are identified. The network modules were then generated as chains of interactions/reactions initiated at one of the signaling inputs and followed down to the last protein identified in the canonical pathway; such termini often are transcription factors and their targets. These pathways represent linear modules of cell signaling, usually parts of signaling cascades between secondary messengers and transcription factors. […]
FIG. 16C is the top scored CREB pathway map for the genes content of the network A. Gene expression was mapped without thresholds. […]

CC/C(=C(\c1ccccc1)c1ccc(OCCN(C)C)cc1)c1ccccc1 [tamoxifen]
direction of expression (fold change) of genes on the highest scored pathway map, CREB pathway: down-regulated
